In ChEMBL document CHEMBL3301361, “Experimental in vitro DMPK and physicochemical data on a set of publicly disclosed compounds”:
Values after ≈ are worked out from the molar mass of the structure shown.

Tests used:
[1] = physchem
[2] = physchem; conditions: pH 7.4 buffer
[3] = in vitro; conditions: human
[4] = in vitro; conditions: hepatocytes
[5] = physchem; remark: listed apart in the source
[6] = physchem; conditions: octan-1-ol/water
[7] = in vitro; conditions: human, plasma
[8] = in vitro; conditions: SD, HW or BN, rat, plasma
[9] = in vitro; conditions: Beagle, dog, plasma
[10] = in vitro; conditions: human, hepatocytes
[11] = in vitro; conditions: mouse, plasma

| Compound | pKa [1] | solubility thermodynamic [2] [µM] | microsomal CLint ([3]; microsomes) [µL/min/mg] | hepatocyte CLint [4] [µL/min/1e6 cells] | pKa [5] | logD ([6]; pH 7.4, LogD7.4) | fraction unbound at 5 h ([7]; PPB) | fraction unbound at 5 h [8] | logD ([6]; pH 7.4) | fraction unbound at 5 h [7] | fraction unbound at 5 h [9] | microsomal CLint ([3]; liver microsomes) [µL/min/mg] | hepatocyte CLint [10] [µL/min/1e6 cells] | fraction unbound at 5 h [11] |
| --- | --- | --- | --- | --- | --- | --- | --- | --- | --- | --- | --- | --- | --- | --- |
| Cc1cc(CN(CC(=O)Nc2ccc(Cl)cc2Cl)C2CCCCC2)ccc1OCC(=O)O | 6.7 | 813 (≈ 390 µg/mL) | 101 | 43.4 | 2.9 |  |  |  |  |  |  |  |  |  |
| Cc1cc(CN2Cc3ccccc3C2C(=O)Nc2ccc(Cl)cc2Cl)ccc1OCC(=O)O (centres undefined) | 5.6 | 479 (≈ 232 µg/mL) |  |  | 3.1 | 2.62 | 0.0013 | 0.0014 |  |  |  |  |  |  |
| Cc1cc(CN2Cc3ccccc3C[C@H]2C(=O)Nc2ccc(Cl)cc2Cl)ccc1OCC(=O)O | 6.2 | 347 (≈ 173 µg/mL) | 11 | 31 | 3.1 | 2.41 |  |  |  |  |  |  |  |  |
| C[C@H]1CN(Cc2cc(Cl)ccc2OCC(=O)O)CCN1C(=O)Cc1ccccc1 | 7 |  | < 3 |  | 2.5 |  |  | 0.11 | 0.18 | 0.0262 | 0.0784 |  |  |  |
| CCS(=O)(=O)c1ccc(-c2cc(Cl)ccc2OCC(=O)O)c(Cl)c1 |  |  |  |  | 3.4 | -0.43 | 0.0268 |  |  |  | 0.0082 | < 3 |  |  |
| CCC(CC)NC(=O)c1c(C)nn(-c2ccccc2)c1NS(=O)(=O)c1ccc(C)cc1 |  |  |  | 13.5 | 4.2 | 1.35 | 0.0049 | 0.03 |  |  | 0.0418 | 23.6 | < 3 |  |
| Cc1ccc2c(c1)c(S(=O)(=O)c1ccc(Cl)cc1)c(C)n2CC(=O)O |  |  |  |  | 3.7 | 0.06 | 0.0052 |  |  |  | 0.0167 | 7 |  |  |
| Cc1nn(C2CCOCC2)c(NS(=O)(=O)c2ccc(C3CC3)cc2)c1C(=O)N[C@@H](C)C(C)(C)C |  |  |  |  | 5 | 1.23 | 0.0736 | 0.11 |  |  | 0.107 |  |  |  |
| COc1ccc(COc2nc(Br)cnc2NS(=O)(=O)c2ccc(C)cc2)cc1OCCN(C)C | 8.8 | 77.6 (≈ 42.8 µg/mL) |  | 31 | 5.05 | 1.68 | 0.0033 |  |  |  |  | 7 |  |  |
| C[C@@H](CC(=O)OC(C)(C)C)NC(=O)C1=NOC(C(O)(C(F)(F)F)C(F)(F)F)C1 (some centres undefined) |  |  |  |  |  |  |  |  |  |  |  |  |  | 0.201 |
| COCCOc1nc(N)c2[nH]c(=O)n(Cc3ccccc3)c2n1 | 2.4 |  |  |  | 9.5 | 2.26 | 0.105 | 0.376 |  |  |  | < 3 |  |  |
| Cc1ccc2c(c1)c(-c1ccnc3cc(Cl)ccc13)c(C)n2CC(=O)O | 2.6 |  |  |  | 5 | 1.59 | 0.0018 |  |  |  | 0.0035 | 4 |  |  |
| O=C(O)COc1cccc(N2CCC(CN3CCC(Oc4ccc(Cl)c(Cl)c4)CC3)CC2)c1 | 9.3 |  |  | < 3 | 3.7 |  |  |  |  |  |  | 12 |  |  |
| O=C(O)COc1cccc(C(=O)N2CCC(N3CCC(Oc4ccc(Cl)c(Cl)c4)CC3)CC2)c1 | 8.2 |  | < 3 |  | 2.9 | 1.09 | 0.013 |  |  |  |  |  |  |  |
| O=C(O)c1cccc(C(=O)N2CCC(N3CCC(Oc4ccc(Cl)c(Cl)c4)CC3)CC2)c1 | 8.6 |  |  |  | 3.4 | 1.23 | 0.0499 |  |  |  |  | < 3 |  |  |
| O=C(NS(=O)(=O)c1ccccc1)N1CCC(N2CCC(Oc3ccc(Cl)c(Cl)c3)CC2)CC1 | 8.1 |  |  |  | 3.3 | 1.5 | 0.186 |  |  |  |  | < 3 |  |  |

| Compound | pKa [1] | solubility thermodynamic [2] [µM] | microsomal CLint ([3]; microsomes) [µL/min/mg] | hepatocyte CLint [4] [µL/min/1e6 cells] | pKa [5] | logD ([6]; pH 7.4, LogD7.4) | fraction unbound at 5 h ([7]; PPB) | fraction unbound at 5 h [8] | logD ([6]; pH 7.4) | fraction unbound at 5 h [7] | fraction unbound at 5 h [9] | microsomal CLint ([3]; liver microsomes) [µL/min/mg] | hepatocyte CLint [10] [µL/min/1e6 cells] | fraction unbound at 5 h [11] |
| --- | --- | --- | --- | --- | --- | --- | --- | --- | --- | --- | --- | --- | --- | --- |
| O=C(NS(=O)(=O)c1ccc(F)cc1)N1CCC(N2CCC(Oc3ccc(Cl)c(Cl)c3)CC2)CC1 | 8.45 |  | 11 |  | 3 | 1.79 | 0.194 |  |  |  |  |  |  |  |
| O=C(NS(=O)(=O)c1ccc(Cl)cc1)N1CCC(N2CCC(Oc3ccc(Cl)c(Cl)c3)CC2)CC1 | 8.2 |  |  |  | 2.5 | 2.59 | 0.329 |  |  |  |  | 5 |  |  |
| COc1ccc(S(=O)(=O)NC(=O)N2CCC(N3CCC(Oc4ccc(Cl)c(Cl)c4)CC3)CC2)cc1 | 8.3 |  |  |  | 3.6 | 1.39 | 0.0127 |  |  |  |  | < 3 |  |  |
| CN(C)c1ccccc1S(=O)(=O)NC(=O)N1CCC(N2CCC(Oc3ccc(Cl)c(Cl)c3)CC2)CC1 | 8.6 |  |  |  | 6.6 | 1.74 | 0.0175 |  |  |  |  | 33 |  |  |
| Cc1ccc(S(=O)(=O)NC(=O)N2CCC(N3CCC(Oc4ccc(Cl)c(C)c4Cl)CC3)CC2)cc1 | 8.7 |  |  |  | 3.2 | 2.2 | 0.179 |  |  |  |  | 3 |  |  |
| Nc1cc(-c2cc(C(F)(F)F)ccc2Oc2cc(F)c(S(=O)(=O)Nc3ncns3)cc2Cl)ccn1 | 6.4 |  |  |  | 3.18 |  |  | 0.0035 |  |  |  |  |  |  |
| O=S(=O)(Nc1ncns1)c1cc(F)c(Oc2ccc(Cl)cc2-c2ccnn2C2CNC2)cc1F | 10.1 |  |  |  | 3.19 |  | 0.02 | 0.0532 |  |  | 0.0437 |  |  |  |
| Nc1nc(O)c(Cl)c(-c2ccccc2)n1 | 2.35 |  |  |  | 7.45 |  |  | 0.0661 |  | 0.0477 |  |  |  |  |
| N#Cc1ccc(NC(=O)Nc2ccccc2Br)c2nn[nH]c12 |  |  | 23 | 69 | 6.2 | 1.64 | 0.0042 |  |  |  | 0.0049 |  |  |  |
| CN(C)S(=O)(=O)NC(=O)CCCc1c(-c2ccc(F)cc2)[nH]c2ccc(C#N)cc12 |  | 4.8 (≈ 2.06 µg/mL) | 8.86 | < 3 | 5.5 |  | 0.0041 | 0.0042 |  |  | 0.0196 |  |  |  |
| CCCSc1ccc2nc(NC(=O)OC)[nH]c2c1 [ALBENDAZOLE] | 5.88 | 1.6 (≈ 0.425 µg/mL) | 34.7 | 83.2 | 10.5 |  |  | 0.0581 | 3.24 | 0.0457 |  |  |  |  |
| O=C(Nc1ccc(Cl)c(S(=O)(=O)N2CCNCC2)c1O)Nc1cccc(F)c1Cl [ELUBRIXIN] | 8.5 | 457 (≈ 212 µg/mL) |  | 41.4 | 5.9 | 2.6 | 0.0029 | 0.0106 |  |  | 0.0127 |  | < 3 |  |
| Nc1[nH]ncc1-c1cc(Cl)ccc1Oc1cc(F)c(S(=O)(=O)Nc2cscn2)cc1Cl [PF-05089771] |  |  |  |  | 6.2 |  | 0.0024 | 0.0055 |  |  | 0.0048 |  | 5.62 |  |
| CN1CCN(CC(=O)N2c3ccccc3C(=O)Nc3cccnc32)CC1 [PIRENZEPINE] | 7.88 |  |  | 6.76 | 10.7 | -0.49 | 0.76 |  |  |  |  | < 3 |  |  |
| CCN(CC)CCNC(=O)c1ccc(NS(C)(=O)=O)cc1 [SEMATILIDE] | 9.35 |  |  |  | 7.52 |  | 0.849 | 0.899 |  |  | 0.899 |  |  |  |
